Numbers after ± are expanded uncertainties.
Assay: refractive index (Na D-line) (dimensionless)
Conditions: 298.15 K; 101.33 kPa; Liquid; Standard Abbe refractometry
`CCO` [ethanol] gave a refractive index of 1.35947 ± 0.00033. In the case of `CO` [methanol], the refractive index is reported as 1.32655 ± 0.00031. With `O` [water] the refractive index was 1.33251 ± 0.00031.

Source: the NIST ThermoML archive (doi:10.1021/acs.jced.5b01102)
